Measured values: patent US20200347039A1, “CRYSTAL FORM OF RENAL OUTER MEDULLARY POTASSIUM CHANNEL INHIBITOR AND PREPARATION METHOD THEREOF” (JIANGSU HENGRUI MEDICINE CO., LTD., priority 2017, published 2020)

Assay: Pharmacokinetic experiment in SD rats after gavage (LC/MS/MS plasma concentration)
Type: in vivo
Details: for AUClast: SD rat experiment (5 mg/kg)
[1] = SD rats, po 5.0 mg/kg, suspension in 0.5% CMC-Na
[2] = both sexes, rat, plasma, SD rats, po 5.0 mg/kg, suspension in 0.5% CMC-Na

AUClast | T1/2 [1] | Vz/F_obs [1] | AUC(0-t) [2] | CL/F [2] | half-life [2] | Vd/F (both sexes, rat, plasma, SD rats, po 5.0 mg/kg, suspension in 0.5% CMC-Na, read-out: Vz/F_obs) | Compound
9283 ng·h/mL | 3.62 h | 3.019 L/kg | 9280 ng·h/mL |  |  |  | COc1cc(C(=O)NC2CCN(C[C@H](O)c3ccc4c(c3C)COC4=O)CC2)ncc1C#N [free state]
12618 ng·h/mL |  |  | 12600 ng·h/mL | 6.7 mL/min/kg | 4.21 h | 2.45 L/kg | COc1cc(C(=O)NC2CCN(C[C@H](O)c3ccc4c(c3C)COC4=O)CC2)ncc1C#N.O=C(O)C(O)C(O)C(=O)O [Crystal form III, (R)-5-cyano-N-(1-(2-hydroxy-2-(4-methyl-1-carbonyl-1,3-dihydroisobenzofuran-5-yl)ethyl)piperidin-4-yl)-4-methoxypyridinecarboxamide tartrate]
